# Reference: patent publication US20260284055A1, “FGFR4 INHIBITOR COMPOSITION, PREPARATION METHOD THEREFOR AND PHARMACEUTICAL USE THEREOF” (Abbisko Therapeutics Co., Ltd., priority 2023, published 2026)
# Experiments:
# Type in all cases: physicochemical
# [1] = Content determination of active pharmaceutical ingredient (HPLC)
# Method: Chromatographic conditions: Octadecylsilane-bonded silica gel was used as the filler (Waters XBridge® C18, 4.6×150 mm, […] chromatographic column or chromatographic column with equivalent performance); a 0.1 vol % trifluoroacetic acid solution was used as mobile phase A, and a solution of 0.1 vol % trifluoroacetic acid in acetonitrile was used as mobile phase B; isocratic elution was performed with mobile phase A-mobile phase B (70:30); the detection wavelength was 232 nm, the flow rate was 1.0 mL/min, the column temperature was 40° C., the sample injection volume was 10 μL, and the run time was 10 min.
# (§1) The inventors first conducted a study on the physicochemical properties of the active pharmaceutical ingredient. The specific procedures were as follows: The active pharmaceutical ingredient and different auxiliary materials were mixed at different ratios and then placed under different conditions; the samples were taken out at different time points and then observed for appearance, hygroscopic weight gain, active pharmaceutical ingredient content, related substance content, etc.
# [2] = Micromeritic properties of powders (angle of repose, bulk density, tap density, Carr index, flowability)
# [3] = Hygroscopic weight gain (gravimetric method)
# Method: Gravimetric method: The initial weight of a sample was measured, recorded as W1, and then the weight of the sample after being placed under high-humidity conditions for a certain period of time was measured, recorded as W2; the percentage of hygroscopic weight gain was calculated based on the weight difference, using the following calculation formula: (W2−W1)/W1*100%.
# as §1
# [4] = Related substances (HPLC), compatibility and stability
# Method: Gradient elution was performed according to the table below, with a run time of 50.0 min and a post-run time of 5 min.
# as §1
# [5] = Particle size distribution of active pharmaceutical ingredient (Malvern Mastersizer 2000)
# Method: The active pharmaceutical ingredient was mechanically milled, and samples were taken at different milling time points. The particle size distribution was determined using a Malvern Mastersizer 2000 laser particle size analyzer, and the particle morphology was observed using a polarizing microscope. [table]
# [6] = API of the capsule batch of the same table line
compound,measurement,setting,value
"C=CC(=O)N[C@H]1CCOC[C@H]1Nc1ncc2cc(-c3c(F)c(OC)cc(OC)c3F)nc(N3CC(C)(OC)C3)c2n1.Cc1ccc(S(=O)(=O)O)cc1.O [Active pharmaceutical ingredient, p-toluenesulfonate monohydrate of the compound of formula (I)]",Content,[1]; 0 d,100.5%
same,Content,"[1]; 25° C./92.5% RH, 30 d",99.5%
same,Content,"[1]; 40° C./75% RH, 30 d",98.6%
same,Content,"[1]; 60° C., 30 d",102.5%
same,Content,"[1]; Light exposure, 10 d",96.5%
same,Angle of repose,[2],44.66 °
same,Bulk density,[2],0.447 g/mL
same,Carr index,[2],40%
same,Tap density,[2],0.740 g/mL
same,Percentage change in hygroscopic weight gain,"[3]; 25° C./92.5% RH, 10 d",0.6%
same,Percentage change in hygroscopic weight gain,"[3]; 25° C./92.5% RH, 30 d",0.3%
same,Percentage change in hygroscopic weight gain,"[3]; 40° C./75% RH, 10 d",0.2%
same,Percentage change in hygroscopic weight gain,"[3]; 40° C./75% RH, 30 d",−0.3%
same,Hygroscopicity,[3]; API alone,not highly hygroscopic
same,Related substance (%),[4]; 0 d,0.66%
same,Related substance (%),"[4]; 25° C./92.5% RH (open), 30 d",0.98%
same,Related substance (%),"[4]; 25° C./92.5% RH (open), 30 d, listed as active pharmaceutical ingredient",slight increase in impurities
same,Related substance (%),"[4]; 40° C./75% RH (open), 30 d",0.58%
same,Related substance (%),"[4]; 40° C./75% RH (open), 30 d, listed as active pharmaceutical ingredient",remained stable
same,Related substance (%),"[4]; 60° C. (open), 30 d",0.66%
same,Related substance (%),"[4]; 60° C. (open), 30 d, listed as active pharmaceutical ingredient",remained stable
same,RRT = 0.27 related substance content,[4]; API,<0.05%
same,RRT = 0.44 related substance content,[4]; API,0.09%
same,RRT = 0.56 related substance content,[4]; API,<0.05%
same,RRT = 0.71 related substance content,[4]; API,0.05%
same,RRT = 0.74 related substance content,[4]; API,0.06%
same,RRT = 0.88 related substance content,[4]; API,0.06%
same,RRT = 0.97 related substance content,[4]; API,<0.05%
same,RRT = 1.05 related substance content,[4]; API,<0.05%
same,RRT = 1.09 related substance content,[4]; API,<0.05%
same,RRT = 1.27 related substance content,[4]; API,0.20%
same,RRT = 2.00 related substance content,[4]; API,0.14%
same,Related substance,[4]; API,0.60%
same,API impurities: Single impurity,[4]; [6],Single impurity < 0.05%
same,API impurities: Total impurities,[4]; [6],Total impurities < 0.05%
same,Related substance (%),"[4]; Light exposure (open), 10 d",0.64%
same,Related substance (%),"[4]; Light exposure (open), 10 d, listed as active pharmaceutical ingredient",remained stable
same,single impurity (RRT=0.44),[4]; after 10 days of exposure to light,0.07%
same,single impurity (RRT=0.44),[4]; before exposure to light,< 0.05%
C=CC(=O)N[C@H]1CCOC[C@H]1Nc1ncc2cc(-c3c(F)c(OC)cc(OC)c3F)nc(N3CC(C)(OC)C3)c2n1 [Test 0],Particle size distribution D50,[5],155.607 μm
same,Particle size distribution D90,[5],333.563 μm
C=CC(=O)N[C@H]1CCOC[C@H]1Nc1ncc2cc(-c3c(F)c(OC)cc(OC)c3F)nc(N3CC(C)(OC)C3)c2n1 [Test 1],Particle size distribution D10,[5],2.168 μm
same,Particle size distribution D50,[5],14.763 μm
same,Particle size distribution D90,[5],D90 = 125.775 μm
C=CC(=O)N[C@H]1CCOC[C@H]1Nc1ncc2cc(-c3c(F)c(OC)cc(OC)c3F)nc(N3CC(C)(OC)C3)c2n1 [Test 2],Particle size distribution D10,[5],1.509 μm
same,Particle size distribution D50,[5],9.682 μm
same,Particle size distribution D90,[5],D90 = 63.594 μm
C=CC(=O)N[C@H]1CCOC[C@H]1Nc1ncc2cc(-c3c(F)c(OC)cc(OC)c3F)nc(N3CC(C)(OC)C3)c2n1 [Test 3],Particle size distribution D10,[5],1.298 μm
same,Particle size distribution D50,[5],8.279 μm
same,Particle size distribution D90,[5],D90 = 43.137 μm
